# Reference: patent publication US12226450B2, “Peptides and methods for treating disease” (OP-T LLC, priority 2019, dated 2025)
# Where no end group is shown, it is not given here.
# Legend:
# NOD mice [1] = assay: Hyperglycemia in diabetic NOD mice treated with KGYY-15; format: in vivo, mouse; details: control treatments, blood glucose between 250-400 mg/dl
# Description: In this study, NOD mice, blood glucose between 250-400 mg/dl were treated with KGYY-15. Control mice were treated with MR1 an anti-CD154 antibody or scrambled 15-mer peptide (SEQ ID NO: 17). KGYY-15 (SEQ ID NO: 11) reduced blood glucose in 57% of mice treated, the controls MR1 and scrambled 15-mer peptide had no effect.
# [2] = tested on: CD3+CD4+CD40+(Th40) splenic cells; assay: Inflammatory cytokines in cultured Th40 splenic cells from ApoE−/− mice; format: cell-based, mouse; details: overnight culture, varying concentrations, compared to the untreated cells
# Description: FIG. 24 provides a graph showing that different concentrations of peptide of SEQ ID NO:46 affects or influences levels of IL-2, IFNγ, and IL-17A. In this study, CD3+CD4+CD40+(Th40) splenic cells were purified from ApoE^−/− with cardiovascular disease. The cells were cultured overnight in the absence/presence of varying concentrations of KGYY6 peptide.
# diabetic dogs = assay: Safety in treated diabetic dogs: blood counts, chemistry panels, adverse effects; format: in vivo, dog
# Description: Five diabetic dogs including 4 new onset and 1 long-term, (diagnosis greater than 3 years) were recruited into a test case study. The dogs were enrolled at Colorado State University Veterinary Hospital (CSU-VH), Fort Collins, CO for the study. Each dog was assessed by a Board-Certified Veterinarian. Blood samples were collected from each dog and analyzed by chemistry panels to determine general health, as well as assessed by complete physical examination. The dogs were each confirmed diabetic, blood glucose ranging from 300-600 mg/dl but were generally in good health otherwise. One dog was diagnosed with hypertension, and two dogs had eye problems, partial blindness and the long-term dog was completely blind from diabetes.
# Breeds were varied and sizes ranged from 8 to 27 kilos. Four of the dogs had been diagnosed for 3 months or less, 1 dog was diagnosed for 3.5 years. All dogs were receiving daily insulin treatments. The route of administration was IV infusion of SEQ ID NO. 13 over 30 minutes at 2 mg/kg on Days 0, 4, 8 and then weekly thereafter for a total of 8 weeks. The dogs were treated with the dog-sequence (SEQ ID NO: 13—VLRWAPKGYYTISSN); acetate salt form; brought up in sterile PBS for injection; injection was done as a slow infusion over 30 minutes. […] The dog diagnosed for 3.5 years experienced an improvement of time-in-range (percentage of a 24-hour period that blood glucose ranged between 80 and 160) from 10% to 80% for 5 consecutive days in the 5th week and achieved this for the last 3 test weeks. Typical responses in all five dogs was that 3-5 days post treatment improvements in blood glucose occurred. For example, blood glucose would move from 400 to 120, remain stable for 2 days but return to elevated levels. In all the treated dogs, glucose spikes were at lower levels, 300 mg/dl as a high, compared to >500 mg/dl prior to treatment. In fact, prior to treatment, none of the dogs recorded blood glucose levels less than 350. During treatment dogs were at 200 mg/dl or lower the majority of the time and in many cases were at 150 mg/dl or less.
# Prior to treatment blood samples were analyzed for blood glucose levels and Th40 cell percentages in peripheral blood. These pre-treatment Th40 cell levels and blood glucose levels can be seen in FIGS. 15, 16, and 17. In FIG. 15, controls are blood samples from test beagles used by CSU-VH and were all confirmed non-diabetic (i.e. not diabetic). […] On day 0, prior to the first treatment, blood was collected from leg vein and analyzed for Th40 cell percentages. […] Samples were analyzed for Th40 cells by flow cytometry. Furthermore, isolated blood was processed to obtain lymphocytes. […] The percentage of CD4+CD40+ as a subset of total CD4+ cells was determined and graphed. […]
# NOD mice [3] = assay: Development of diabetes in NOD mice treated with CD154 peptide fragments; format: in vivo, mouse; details: 25 ug (1 mg/kg) tail vein weekly from 6 weeks of age; diabetes = blood glucose greater than 250 mg/dL for three consecutive days
# Description: (§1) Peptides were designed based on the amino acid sequence of mouse CD154 protein (SEQ ID NO:1) in the SwissPro database. […] Weekly after the initial injection, another 25 ug of peptide (or 100 ul of PBS in the case of the Control mice) was injected into the tail vein. At 10 weeks of age, mice were monitored for diabetes, as indicated by a blood glucose level greater than 250 mg/dL for three consecutive days. During this time, blood was also taken from the tail vein, or by sub-mandibular venal puncture, and the level of CD4+ and CD8+ cells determined by flow cytometry using antibodies for CD4 protein and CD8 protein.
# CD4+ and CD8+ cells = assay: CD4/CD8 ratio in blood of peptide-treated NOD mice by flow cytometry; format: in vivo, mouse; details: 25 ug tail vein weekly
# Description: as §1
# [4] = diabetic dogs, IV infusion 2 mg/kg
molecule,measurement,setting,value
YKNVKQMAYWLTGKS [scrambled 15-mer peptide],effect on blood glucose,NOD mice [1],no effect
AKKGYY (not fully specified (C-terminus)) [KGYY6],IFNγ,[2],varying degrees of reduction
same,IL-2,[2],varying degrees of reduction
same,IL-17A,[2],varying degrees of reduction
"VLRWAPKGYYTISSN [SEQ ID NO: 13, VLRWAPKGYYTISSN]",adverse effects,diabetic dogs; [4],None of the dogs experienced any adverse effects
same,chemistry panel numbers,diabetic dogs; [4],normal
same,impact on WBC and RBC,diabetic dogs; [4],no negative impacts
same,blood chemistry panels versus samples prior to treatment,diabetic dogs; each improved from blood samples prior to treatment,normal levels on most parameters
VLQWAKKGYYTMK (not fully specified (C-terminus)) [13-mer peptides],development of diabetes,NOD mice [3],significant effects on the development of diabetes
"CSCC[C@H](NC(=O)[C@@H](NC(=O)[C@H](Cc1ccc(O)cc1)NC(=O)[C@H](Cc1ccc(O)cc1)NC(=O)CNC(=O)[C@H](CCCCN)NC(=O)[C@H](CCCCN)NC(=O)[C@H](C)NC(=O)[C@H](Cc1c[nH]c2ccccc12)NC(=O)[C@H](CCC(N)=O)NC(=O)[C@H](CC(C)C)NC(=O)[C@@H](N)C(C)C)[C@@H](C)O)C(=O)N[C@@H](CCCCN)C(=O)N[C@@H](CO)C(=O)N[C@@H](CC(N)=O)C(=O)O [15-mer peptide, VLQWAKKGYYTMKSN]","compromise of the immune system, as determined by the CD4/CD8 ratio",CD4+ and CD8+ cells,did not result in compromise of the immune system
